Several values for one entry are separate records, joined by “and”; a condition that tells them apart may be missing. Identical values can stand only once. Entries after “also recorded” stand apart in the source; their conditions may differ. Non-standard residues stand in square brackets, D forms with d. Residues, ends and D or L forms follow the SMILES beside them.
Tests used:
[1] = system: calorie restricted male C57BL/6J wild type mice; test: Oral delivery (gavage) in calorie restricted (40%) wild type mice: body weight, serum glucose, serum osteocalcin; assay type: in vivo, mouse
Experimental: (§1) Six week-old male C57BL/6J wild type and ob/ob mice were obtained from Jackson Laboratories (Bar Harbor, Me., USA). The animals were housed individually polycarbonate cages fitted with stainless steel wire lids and air filters, and supported on ventilated racks (Thoren Caging Systems, Hazelton, Pa., USA) in the Albany Medical College Animal Resources Facility. The mice were maintained at a constant temperature (24° C.) with lights on from 07:00 to 19:00, and allowed food and water ad libitum for 6 days following arrival. During the test period, mice were fed ad libitum or calorie restricted to 60% of normal. Water intake was allowed ad libitum.
(§2) On day 1 of the study, and on each day thereafter, a water bottle containing 200 ml of water was added to each cage between 09:00 and 10:00 h. Mice fed ad libitum were given 200 g of pelleted rodent diet (Prolab Rat, Mouse, Hamster 3000, St. Louis, Mo.; 22% crude protein, 5% crude fat, 5% fiber, 6% ash, 2.5% additional minerals) between 09:00 and 10:00 h each day. The mice were weighed once daily between 09:00 and 10:00 h on an Acculab V-333 electronic balance (Cole-Parmer, Vernon Hills, Ill., USA). Calorie-restricted wild type and ob/ob mice received 60% of normal daily intake. Twenty four hours later, food and water remaining in the cages was measured to the nearest 0.1 g and 0.1 ml, respectively. To assure fasting glucose levels on days in which blood glucose was measured, food was removed from the cages between 09:00 and 10:00 h, and replaced immediately before the beginning of the dark cycle.
(§3) Mouse [D-Leu-4]OB3 was prepared commercially as a C-terminal amide by Bachem (Torrance, Calif., USA). The peptide was dissolved in 0.3% Intravail A3® (Aegis Therapeutics, San Diego, Calif. USA) reconstituted in water, and administered by gavage once daily for 10 days at a concentration of 1 mg/200 μl immediately before the start of the dark cycle. Is has previously been shown that this is the optimum concentration of mouse [D-Leu-4]-OB3 and its related bioactive peptide amides, for regulating energy expenditure, glucose levels, and insulin sensitivity in two genetically obese mouse models (see Rozhayskaya-Arena M. et al., Endocrinology 141:2501-2517 (2000); Grasso P. et al. Regulatory Pep. 101:123-129 (2001); Grasso P. et al., Diabetes 48:2204-2209 (1999), Grasso P. et al., Endocrinology 138:1413-1418 (1997); Grasso P. et al., Regulatory Peptides 85:93-100 (1999); and Grasso P. et al., Diabetes 48:2204-2209 (1999)). Vehicle injected control mice received 200 ul of Intravail A3® only.
(§4) Initial blood samples were drawn by snipping the end of the tail of each mouse at the beginning of the study (day 0); subsequent samples were obtained by gently removing the scab. Blood was taken 1 h before the onset of the dark period at the beginning of the study, and after 2, 4, 6, 8, and 10 days of treatment. The blood was applied to a test strip, and glucose levels were measured with a Glucometer Elite glucose meter (Bayer, Elkhart, Ind., USA).
(§5) At the end of the study, the mice were anesthetized with isoflurane (5%) and exsanguinated by cardiac puncture. Euthanasia was confirmed by cervical dislocation. The blood was collected in sterile nonheparinized plastic centrifuge tubes and allowed to stand at room temperature for 1 h. The clotted blood was rimmed from the walls of the tubes with sterile wooden applicator sticks. Individual serum samples were prepared by centrifugation for 30 min at 2600×g in an Eppendorf 5702R, A-4-38 rotor (Eppendorf North America, Westbury, N.Y., USA). The serum samples in each experimental group (n=6) were pooled and stored frozen until assayed for osteocalcin content.
(§6) Serum osteocalcin in the pooled samples was assayed in triplicate with a mouse osteocalcin ELISA kit obtained from Biomedical Technologies, Inc. (Stoughton, Mass., USA) according to the instructions supplied by the manufacturer. […]

[2] = system: calorie restricted male C57BL/6J ob/ob mice; test: Oral delivery (gavage) in calorie restricted (40%) ob/ob mice: body weight, serum glucose, serum osteocalcin; assay type: in vivo, mouse
Experimental: as §1, §2, §3, §4, §5, §6

[3] = system: male C57BLK/6-m db/db mice; test: Intranasal delivery in db/db mice: body weight, food and water intake, serum glucose, insulin, osteocalcin; assay type: in vivo, mouse
Experimental: Each bar and vertical line represents mean±SEM serum glucose level (n=6).
FIG. 17. Effects of intranasal administration of mouse [D-Leu-4]-OB3 (1 mg/day, 14 days) on body weight gain in C57BLk/6-m db/db mice. […] Each point represents the mean±standard error of mean change in body weight for a group of six mice.
In the present study, the effects of intranasal administration of mouse [D-Leu-4]-OB3 in Intravail® on energy balance, serum osteocalcin, and serum insulin levels in genetically obese male C57BLK/6-m db/db mice allowed food and water ad libitum were examined. […] (See FIGS. 12 and 13). […] (See FIGS. 14 and 15).
In the present study, the effects of intranasal delivery of mouse [D-Leu-4]-OB3 in Intravail® on energy balance, glucose regulation, insulin secretion, and serum levels of osteocalcin, a specific and sensitive marker of bone formation were examined Genetically obese C57BLK/6-m db/db mice were allowed food and water ad libitum, and given either Intravail® alone or mouse [D-Leu-4]-OB3 in Intravail® for 14 days. […] Serum insulin levels in db/db mice given mouse [D-Leu-4]-OB3 were approximately 3-fold lower than those in mice receiving Intravail® alone. Mouse [D-Leu-4]-OB3 elevated serum osteocalcin in db/db mice by 28.7% over Intravail® treated control mice. […] In addition, its effects on bone turnover may also be useful in the prevention and/or reversal of at least some of the bone loss which accompanies osteoporosis, anorexia nervosa, cancer, and other wasting diseases not associated with the obesity syndrome.

[4] = Observation of toxic side effects in treated animals; assay type: in vivo; details: treated mice or rats
[5] = 1 mg/day, 10 days, gavage in Intravail
[6] = after 10 days, 1 mg/day gavage in Intravail
[7] = day 0, 1 mg/day, 10 days, gavage in Intravail
[8] = 1 mg/day, 14 days, intranasal in Intravail

CC(C)C[C@@H](NC(=O)[C@H](CO)NC(=O)[C@H](CS)NC(=O)[C@@H](N)CO)C(=O)N1CCC[C@H]1C(=O)N[C@@H](CCC(N)=O)C(=O)N[C@H](C(N)=O)[C@@H](C)O [mouse [D-Leu-4]-OB3] (H-SCS[dL]PQT-NH2; N-terminus assumed)
Body weight (% of initial) [1, 5]: 90.0 ± 0.8 % of initial | Final body weight [1, 5]: 20.3 ± 0.7 g | Serum osteocalcin [1, 5]: 216.6 ± 0.4 ng/mL | serum osteocalcin, effect on decrease caused by calorie restriction ([1]; 10 days gavage): prevented this decrease; also recorded: significantly (P<0.001) elevated serum osteocalcin levels to levels Seen in Intravail® treated wild type mice fed ad libitum | weight loss compared to calorie restriction with Intravail alone (words) ([1]; 10 days gavage): did not enhance this weight loss | weight loss compared to calorie restriction with Intravail alone (words) ([1]; 10 days gavage, listed as mouse [D-leu-4]-OB3): essentially the same | Final serum glucose [1, 6]: 134.8 ± 14.8 mg/dL | Initial serum glucose ([1]; day 0): 186.7 ± 36.7 mg/dL | Initial body weight [1, 7]: 22.6 ± 0.8 g | Body weight (% of initial) [2, 5]: 90.0 ± 0.8 % of initial | Final body weight [2, 5]: 30.8 ± 0.6 g | Serum osteocalcin [2, 5]: 290.1 ± 3.2 ng/mL | serum glucose compared to calorie restriction alone ([2]; 10 days gavage): normalized levels; also recorded: significantly (P<0.001) reduced serum glucose levels to levels Seen in wild type mice allowed food ad libitum | serum osteocalcin, effect on decrease caused by calorie restriction ([2]; 10 days gavage): significantly elevated serum osteocalcin levels; also recorded: prevented this decrease | weight loss compared to calorie restriction with Intravail alone (words) ([2]; 10 days gavage): did not enhance this weight loss; also recorded: essentially the same | elevation of serum osteocalcin ([2]; after 10 days of treatment): 93.4% | Final serum glucose [2, 6]: 176.5 ± 32.8 mg/dL | Initial serum glucose ([2]; day 0): 480.2 ± 36.7 mg/dL | Initial body weight [2, 7]: 34.2 ± 0.4 g | Body weight (% of initial) [3, 8]: 104.9 ± 1.4 % of initial | Final body weight [3, 8]: 37.0 ± 1.7 g | Food intake [3, 8]: 6.1 g/mouse/day and 6.1 ± 0.3 g/mouse/day | Serum insulin [3, 8]: 0.95 ng/mL and 0.95 ± 0.03 ng/mL | Serum osteocalcin [3, 8]: 470 ng/mL and 470.0 ± 20.0 ng/mL | Water intake [3, 8]: 21.2 ml/mouse/day and 21.2 ± 1.8 ml/mouse/day | reduction of serum glucose ([3]; 14 days intranasal in Intravail): 61.9% | body weight increase over initial body weight (heavier) ([3]; after 14 days intranasal in Intravail): 4.9% | Initial serum glucose ([3]; day 0): 472 ± 7.3 mg/dL | Initial body weight ([3]; day 0, 1 mg/day, 14 days, intranasal in Intravail): 35.0 ± 1.1 g | Final serum glucose ([3]; day 14, 1 mg/day intranasal in Intravail): 209 ± 89.4 mg/dL | toxic side effects (words) [4]: lack of toxicity | toxic side effects (words) ([4]; listed as [D-Leu-4]-OB3): no obvious toxic side effects have ever been observed

— patent publication US20110136728A1, “METHODS OF INCREASING BONE FORMATION USING LEPTIN-RELATED PEPTIDES” (priority 2009, published 2011)
